Assay results as given in patent US12297223B2, “Compounds” (GLAXOSMITHKLINE INTELLECTUAL PROPERTY DEVELOPMENT LIMITED, priority 2019, dated 2025).

Legend:
[1] = Rat pharmacokinetics after IV infusion and oral dose (AUC oral, % F, Ue % PO); format: in vivo, Male Wistar Han rats; conditions: for DNAUC oral h*uM: PO 5 mg/kg, dose normalized AUC in blood, n = 3; for bioavailability: male, Wistar Han, whole blood; for bioavailability / %F: oral bioavailability, PO 5 mg/kg vs IV infusion 1 mg/kg; for Ue% po: percentage of oral dose eliminated unchanged in urine (or estimate from iv urine fraction times oral bioavailability)
Excerpt: General Assays for Obtaining AUC Oral h*μm, % F, and Ue % PO Values
Male Wistar Han rats were purchased from Vital River Laboratory Animal Technology Co. Ltd (Beijing, China). The animals were approx. 6-8 weeks old with body weights of 200-300 g on the dosing date. The animals were housed in a 12-hour light/12-hour dark cycle environment and had free access to food and water. All animals were fed prior to dosing. Studies were approved by the Pharmaron Institutional Animal Care and Use Committee (IACUC).
Test article was administered as an intravenous infusion for 1 hour (1 mg/kg) at 5 mL/kg/h. After 48 h, animals received a single oral dose (5 mg/kg, free form) at a dose volume of 10 mL/kg, respectively. Blood samples were collected at various time points after IV infusion and PO administrations. Urine samples were collected at various time points after IV infusion and PO administrations (for some compounds).
Test article was dissolved in DMSO with vortexing and sonification to obtain a stock solution. An aliquot of the stock solution was mixed with 10% HP-β-CD in saline with vortexing to obtain a solution with concentration at 0.2 mg/mL of test article.
Test article was added into 1% Methyl Cellulose with vortexing and sonication to obtain a homogeneous suspension with concentration at 0.5 mg/mL of test article.
For IV infusion (1 mg/kg) administration, blood samples were collected from each animal at 0, 0.25, 0.5, 0.75, 1, 1.08, 1.25, 1.5, 1.75, 2, 3, 5, 8, 12, 24 hour post-dose.
For PO (5 mg/kg) administration, blood samples were collected from each animal at 0, 0.25, 0.5, 1, 1.5, 2, 3, 4, 6, 8, 12, 24 hour post-dose.
Blood samples (50 μL) were collected from each animal via jugular vein. These blood samples were placed into tubes containing K2EDTA. Whole blood was mixed with same volume of water and inverted several times. The blood samples were stored at −75±15° C. until analysis.
For IV infusion (1 mg/kg) administration, urine samples were collected from each animal at 0-4, 4-8, 8-12, 12-24 hour post-dose.
For PO (5 mg/kg) administration, urine samples were collected (for some compounds) from each animal at 0-4, 4-8, 8-12, 12-24 hour post-dose.
55 μL of standards, 55 μL of QC samples or 55 μL of unknown samples (50 μL of blood or urine with 5 μL 50% acetonitrile) were mixed to 200 μL of acetonitrile containing IS (dexamethasone) to precipitate proteins. Then the samples were vortexed for 30 sec. After centrifugation at 4° C., 4700 rpm for 30 min, and 5 μL of the supernatant was injected into the LC-MS/MS system for quantitative analysis.
Test article blood and urine concentrations for each animal following IV infusion at 1 mg/kg and PO at 5 mg/kg were used to calculate pharmacokinetic parameters by employing a non-compartmental analysis (Phoenix™ WinNonlin® 7.0). The linear trapezoidal algorithm was used for AUC calculation. • AUC oral h*μM: Area under the curve (AUC) of drug concentration in blood vs. time (units: h*μM) following oral administration • % F: Oral bioavailability (%) derived from the ratio of dose-normalized AUC following PO and IV administration • Ue % PO: Percentage of oral dose eliminated unchanged in urine or an estimater of that parameter generated from using the percentage of the iv dose eliminated in the urine times the oral bioavailability

FimH = molecular target: T1, FimH (Escherichia coli, UniProt Q1R2J4); assay: Hemagglutination inhibition (HAI) assay with UTI89 bacteria and guinea pig red blood cells; format: cell-based; conditions: HAI titer (EC>90): concentration reducing bacterial agglutination of guinea pig red blood cells by greater than 90%; also: ranges in brackets are in nM
T1 construct: endogenous in cells; host or cells: E. coli UTI89 (whole bacteria)
Protocol: “HAI titer or EC>90” is that concentration of the FimH inhibitor/antagonist which reduces the bacterial agglutination of guinea pig red blood cells by greater than 90%.
The activities of the Examples 1-34 compounds above as FimH antagonists/inhibitors were obtained by the following assay(s), and results are provided in Table 1. Results not provided mean that the activities have not yet been tested.
Hemagglutination Inhibition Assay (HAI)
The hemagglutination inhibition (HAI) assay was performed with UTI89 bacteria and guinea pig red blood cells, as previously described (S. J. Hultgren, W. R. Schwan, A. J. Schaeffer, J. L. Duncan Infect. Immun. 1986, 54, 613-620 and Jarvis, C.; Han, Z.; Kalas, V.; Klein, R.; Pinkner, J. S.; Ford, B.; Binkley, J.; Cusumano, C. K.; Cusumano, Z.; Mydock-McGrane, L.; Hultgren, S. J.; Janetka, J. W., Chem Med Chem 2016, 11, 367-373). Values not listed were not tested.

Compound	DNAUC oral h*uM [1]	bioavailability [1] [%]	Ue% po [1]	HAI (FimH)	%F [1]
Cc1cc(-c2cc(C(F)(F)F)ccn2)ccc1[C@@H](C)[C@H]1O[C@H](CO)[C@@H](O)[C@H](O)[C@@H]1O (single isomer, unassigned) [Example 2]	“++” (0.5 ≤ x ≤ h · μM)	> 30	“++” (0.5 ≤ x ≤ 5%)	“+++” (50-200)	
Cc1cc(-c2cc(F)cc(F)c2)ccc1[C@@H](C)[C@H]1O[C@H](CO)[C@@H](O)[C@H](O)[C@@H]1O (single isomer, unassigned) [Example 28]				“+++” (50-200)	
C#C[C@@H](c1ccc(-c2cc(F)c(Cl)c(F)c2)cc1C)[C@H]1O[C@H](CO)[C@@H](O)[C@H](O)[C@@H]1O (single isomer, unassigned) [Example 34]				“+++” (50-200)	
Cc1cc(-c2cnc(C(F)(F)F)cn2)ccc1[C@@H](C)[C@H]1O[C@H](CO)[C@@H](O)[C@H](O)[C@@H]1O [Example 1, (2R,3S,4R,5S,6R)-2-(Hydroxymethyl)-6-((R)-1-(2-methyl-4-(5-(trifluoromethyl)pyrazin-2-yl)phenyl)ethyl)tetrahydro-2H-pyran-3,4,5-triol]	“++” (0.5 ≤ x ≤ h · μM)	> 30	“+++” (>5%)	“++++” (<50)	
C[C@H](c1ccc(-c2cnc(C(F)(F)F)cn2)cc1C(F)(F)F)[C@H]1O[C@H](CO)[C@@H](O)[C@H](O)[C@@H]1O [Example 3, (2R,3S,4R,5S,6R)-2-(hydroxymethyl)-6-((R)-1-(2-(trifluoromethyl)-4-(5-(trifluoromethyl)pyrazin-2-yl)phenyl)ethyl)tetrahydro-2H-pyran-3,4,5-triol]	“+++” (>1 h · μM)	> 30	“+++” (>5%)	“++++” (<50)	
Cc1cc(-c2cncc(C(F)(F)F)c2)ccc1[C@@H](C)[C@H]1O[C@H](CO)[C@@H](O)[C@H](O)[C@@H]1O [Example 4, (2R,3S,4R,5S,6R)-2-(Hydroxymethyl)-6-((R)-1-(2-methyl-4-(5-(trifluoromethyl)pyridin-3-yl)phenyl)ethyl)tetrahydro-2H-pyran-3,4,5-triol]	“++” (0.5 ≤ x ≤ h · μM)	> 30	“+++” (>5%)	“++++” (<50)	
Cc1cc(-c2cc(F)c(Cl)c(F)c2)ccc1[C@@H](CO)[C@H]1O[C@H](CO)[C@@H](O)[C@H](O)[C@@H]1O [Example 7, (2R,3S,4R,5S,6R)-2-((S)-1-(4′-chloro-3′,5′-difluoro-3-methyl-[1,1′-biphenyl]-4-yl)-2-hydroxyethyl)-6-(hydroxymethyl)tetrahydro-2H-pyran-3,4,5-triol]	“++” (0.5 ≤ x ≤ h · μM)	10 to 30	“++” (0.5 ≤ x ≤ 5%)	“++++” (<50)	
Cc1cc(-c2cc(F)cc(F)c2)ccc1[C@@H](CCO)[C@H]1O[C@H](CO)[C@@H](O)[C@H](O)[C@@H]1O [Example 11]				“+++” (50-200)	
Cc1cc(-c2cc(F)cc(F)c2)ccc1[C@@H](CO)[C@H]1O[C@H](CO)[C@@H](O)[C@H](O)[C@@H]1O [Example 12]				“+++” (50-200)	
C=C[C@H](c1ccc(-c2cc(F)cc(F)c2)cc1C)[C@H]1O[C@H](CO)[C@@H](O)[C@H](O)[C@@H]1O [Example 13]				“++” (201-1000)	
Cc1cc(-c2cc(F)c(Cl)c(F)c2)ccc1[C@@H](CCO)[C@H]1O[C@H](CO)[C@@H](O)[C@H](O)[C@@H]1O [Example 14]	“+” (<0.5 h · μM)			“++++” (<50)	
C=C[C@H](c1ccc(-c2cc(F)c3nccnc3c2)cc1C)[C@H]1O[C@H](CO)[C@@H](O)[C@H](O)[C@@H]1O [Example 15]	“+” (<0.5 h · μM)			“++++” (<50)	
CC[C@H](c1ccc(-c2ccn(C)c(=O)c2)cc1C)[C@H]1O[C@H](CO)[C@@H](O)[C@H](O)[C@@H]1O [Example 16]	“+” (<0.5 h · μM)			“+++” (50-200)	
CC[C@H](c1ccc(-c2cc(F)cc(C#N)c2)cc1C)[C@H]1O[C@H](CO)[C@@H](O)[C@H](O)[C@@H]1O [Example 17]	“+” (<0.5 h · μM)				
C=C[C@H](c1ccc(-c2cnc(C3CC3)cn2)cc1C)[C@H]1O[C@H](CO)[C@@H](O)[C@H](O)[C@@H]1O [Example 19]	“+” (<0.5 h · μM)			“++++” (<50)	
C=C[C@H](c1ccc(-c2cncc(C#N)c2)cc1C)[C@H]1O[C@H](CO)[C@@H](O)[C@H](O)[C@@H]1O [Example 20]				“+++” (50-200)	
CC[C@H](c1ccc(-c2cncc(C#N)c2)cc1C)[C@H]1O[C@H](CO)[C@@H](O)[C@H](O)[C@@H]1O [Example 21]	“+” (<0.5 h · μM)			“+++” (50-200)	
CC[C@H](c1ccc(-c2cnc(C3CC3)cn2)cc1C)[C@H]1O[C@H](CO)[C@@H](O)[C@H](O)[C@@H]1O [Example 22]				“+++” (50-200)	
Cc1cc(-c2ccc(C(F)(F)F)cn2)ccc1[C@@H](C)[C@H]1O[C@H](CO)[C@@H](O)[C@H](O)[C@@H]1O [Example 27]				“+++” (50-200)	
Cc1cc(-c2cncc(C(F)(F)F)n2)ccc1[C@@H](C)[C@H]1O[C@H](CO)[C@@H](O)[C@H](O)[C@@H]1O [Example 29]	“+” (<0.5 h · μM)	10 to 30	“++” (0.5 ≤ x ≤ 5%)	“++++” (<50)	
Cc1cc(-c2cncc(F)c2)ccc1[C@@H](C)[C@H]1O[C@H](CO)[C@@H](O)[C@H](O)[C@@H]1O [Example 30]				“+++” (50-200)	
Cc1cc(-c2ccc(C(F)(F)F)nn2)ccc1C(C)[C@H]1O[C@H](CO)[C@@H](O)[C@H](O)[C@@H]1O (stereo partly drawn) [Example 31]				“++++” (<50)	
C[C@H](c1ccc(-c2cc(C(F)(F)F)ccn2)cc1C(F)(F)F)[C@H]1O[C@H](CO)[C@@H](O)[C@H](O)[C@@H]1O [Example 32]				“+++” (50-200)	
C[C@H](c1ccc(-c2ccc(C(F)(F)F)cn2)cc1C(F)(F)F)[C@H]1O[C@H](CO)[C@@H](O)[C@H](O)[C@@H]1O [Example 33]				“+++” (50-200)	
(2R,3S,4R,5S,6R)-2-(Hydroxymethyl)-6-((R)-1-(2-methyl-4-(5-(trifluoromethyl)pyrazin-2-yl)phenyl)allyl)tetrahydro-2H-pyran-3,4,5-triol [Example 6]	“+” (<0.5 h · μM)			“+++” (50-200)	“++” (10 ≤ x ≤ 30%)
(2R,3S,4R,5S,6R)-2-(Hydroxymethyl)-6-((R)-1-(2-methyl-4-(5-(trifluoromethyl)pyrazin-2-yl)phenyl)propyl)tetrahydro-2H-pyran-3,4,5-triol [Example 5]	“+” (<0.5 h · μM)		“++” (0.5 ≤ x ≤ 5%)	“+++” (50-200)	“++” (10 ≤ x ≤ 30%)
